Converted amounts (≈) assume the structure as drawn.
What was measured:
[1] = test system: Escherichia coli; assay: Antibacterial activity against Escherichia coli; assay type: functional
[2] = test system: KB; assay: Growth inhibition of human KB cells; assay type: functional, cell-based
[3] = test system: P388; assay: Cytotoxicity against mouse P388 cells; assay type: functional, cell-based
[4] = test system: Mycobacterium tuberculosis; assay: Antibacterial activity against Mycobacterium tuberculosis H37Rv; assay type: functional
[5] = test system: Bacillus subtilis; assay: […] activity against Bacillus subtilis assessed as inhibition zone at 120 ug/disk; assay type: functional; conditions: read-out: IZ
[6] = test system: Candida albicans; assay: Antifungal activity against Candida albicans assessed as inhibition zone at 120 ug/disk; assay type: functional; conditions: read-out: IZ
[7] = test system: Dunaliella tertiolecta; assay: Algicidal activity against Dunaliella tertiolecta ATCC 30929; assay type: functional
[8] = test system: Auxenochlorella pyrenoidosa; assay: Algicidal activity against Chlorella pyrenoidosa IAM C-212; assay type: functional
[9] = test system: Bacillus subtilis; assay: Antibacterial activity against Bacillus subtilis; assay type: functional
[10] = test system: Proteus vulgaris; assay: Antibacterial activity against Proteus vulgaris; assay type: functional
[11] = test system: Chlamydomonas reinhardtii; assay: Algicidal activity against Chlamydomonas reinhardtii IAM C-238; assay type: functional
[12] = test system: Serratia marcescens; assay: Antibacterial activity against Serratia marcescens; assay type: functional
[13] = test system: Catharanthus roseus; assay: Herbicidal activity against Catharanthus roseus; assay type: functional
[14] = test system: Nostoc commune; assay: Growth inhibition of Nostoc commune NIES 24; assay type: functional
[15] = test system: Anabaena cylindrica; assay: Growth inhibition of Anabaena cylindrica NIES 19; assay type: functional
[16] = test system: Armoracia rusticana; assay: Herbicidal activity against Armoracia rusticana; assay type: functional
[17] = test system: [Chlorella] fusca; assay: Algicidal activity against Chlorella fusca IAM C-28; assay type: functional; conditions: Scenedesmus fuscus
[18] = test system: Dunaliella salina; assay: Algicidal activity against Dunaliella salina; assay type: functional
[19] = test system: Trichormus variabilis; assay: Growth inhibition of Anabaena variabilis NIES 23; assay type: functional
[20] = test system: Daucus carota; assay: Herbicidal activity against Daucus carota; assay type: functional
[21] = test system: Ehrlich; assay: Antitumor activity against mouse Ehrlich carcinoma cells xenografted in white mouse assessed as growth inhibition at 20 mg/kg, ip for 7 days; assay type: functional; conditions: 168 h, read-out: GI
[22] = test system: Pasteurella multocida; assay: Antibacterial activity against Pasteurella multocida; assay type: functional
[23] = test system: Salmonella sp.; assay: Antibacterial activity against Salmonella sp.; assay type: functional
[24] = test system: Herpesviridae sp.; assay: Antiviral activity against Herpes simplex virus infected in mouse assessed as mouse survival at 400 mg/kg, sc for 28 days; assay type: functional; conditions: 672 h
[25] = test system: Streptococcus pyogenes; assay: Antibacterial activity against Streptococcus hemolyticus; assay type: functional
[26] = test system: Haemophilus; assay: Antibacterial activity against Haemophilus sp.; assay type: functional
[27] = test system: Klebsiella pneumoniae; assay: Antibacterial activity against Klebsiella pneumoniae; assay type: functional
[28] = test system: Providencia rettgeri; assay: Antibacterial activity against Proteus rettgeri; assay type: functional
[29] = test system: Morganella morganii; assay: Antibacterial activity against Proteus morgana; assay type: functional
[30] = test system: MIA PaCa-2; assay: Cytotoxicity against human MIAPaCa2 cells; assay type: functional, cell-based
[31] = test system: MCF7; assay: Cytotoxicity against human MCF7 cells; assay type: functional, cell-based
[32] = test system: PC-3; assay: Cytotoxicity against human PC3 cells; assay type: functional, cell-based
[33] = test system: Candida albicans; assay: Antifungal activity against Candida albicans assessed as inhibition zone at 2 ug/disk; assay type: functional; conditions: read-out: IZ
[34] = test system: HCT-116; assay: Cytotoxicity against human HCT116 cells; assay type: functional, cell-based
[35] = test system: Klebsiella sp.; assay: Antimicrobial activity against Klebsiella sp.; assay type: functional
[36] = test system: Trichophyton mentagrophytes; assay: Antimicrobial activity against Trichophyton mentagrophytes; assay type: functional
[37] = test system: Proteus sp.; assay: Antimicrobial activity against Proteus sp.; assay type: functional; conditions: Proteus sp. (in: enterobacteria)
[38] = test system: Staphylococcus aureus; assay: Antibacterial activity against Staphylococcus aureus; assay type: functional
[39] = test system: Candida albicans; assay: Antifungal activity against Candida albicans; assay type: functional
[40] = test system: L1210; assay: Cytotoxicity against mouse L1210 cells; assay type: functional, cell-based
[41] = test system: Salmonella sp.; assay: Antimicrobial activity against Salmonella sp.; assay type: functional
[42] = test system: Citrobacter; assay: Antimicrobial activity against Citrobacter; assay type: functional
[43] = test system: Enterobacter sp.; assay: Antimicrobial activity against Enterobacter sp.; assay type: functional
[44] = test system: Enterococcus faecalis; assay: Antimicrobial activity against Streptococcus faecalis; assay type: functional
[45] = test system: Mycobacterium; assay: Antibacterial activity against Mycobacterium B5; assay type: functional
[46] = test system: Xanthomonas citri pv. malvacearum; assay: Antibacterial activity against Xanthomonas malvacearum; assay type: functional
[47] = test system: Clavibacter michiganensis; assay: Antibacterial activity against Clavibacter michiganensis; assay type: functional
[48] = test system: Ehrlich; assay: Antitumor activity against mouse Ehrlich carcinoma cells xenografted in white mouse assessed as growth inhibition at 0.2 mg/kg, ip for 7 days; assay type: functional; conditions: 168 h, read-out: GI

Nc1ncn([C@@H]2O[C@H](CO)[C@@H](O)[C@H]2O)c(=O)n1 [AZACITIDINE]
MIC [1]: 0.01 µg/mL (≈ 0.0409 µM)
IC50 [2]: 0.23 µg/mL (≈ 0.942 µM)

COc1cc(C2(c3ncc[nH]3)SSSCC2O)ccc1O (single isomer, unassigned; (+))
IC50 [3]: 21600 nM
Activity [4]: 10%
zone of inhibition at 120 µg/disc [5]: 4 mm
zone of inhibition at 120 µg/disc [6]: 4 mm

Cn1ncnc2c(=O)[nH]nc1-2
MIC [7]: 20 µM (≈ 3.02 µg/mL)
MIC [1]: 8 µg/mL (≈ 52.9 µM)
MIC [8]: 30 µM (≈ 4.53 µg/mL)
MIC [9]: 6 µg/mL (≈ 39.7 µM)
MIC [10]: 12 µg/mL (≈ 79.4 µM)
MIC [11]: 30 µM (≈ 4.53 µg/mL)
MIC [12]: 7 µg/mL (≈ 46.3 µM)
MIC [13]: 1 to 2 µg/mL (≈ 6.62 to 13.2 µM)
MIC [14]: 20 µM (≈ 3.02 µg/mL)
MIC [15]: 30 µM (≈ 4.53 µg/mL)
MIC [16]: 1 to 2 µg/mL (≈ 6.62 to 13.2 µM)
MIC [17]: 5 µM (≈ 0.756 µg/mL)
MIC [18]: 15 µM (≈ 2.27 µg/mL)
MIC [19]: 30 µM (≈ 4.53 µg/mL)
MIC [20]: 1 to 2 µg/mL (≈ 6.62 to 13.2 µM)

COc1nnc2n(C)ncnc1-2 [PSEUDOIODININE]
inhibition in vivo at 20 mg/kg [21]: 64%

CN1CN([C@H]2C[C@H](O)[C@@H](CO)O2)C(=O)NC1=O
Activity [22]: 2 to 125 µg/mL
Activity [23]: 2 to 125 µg/mL
survival at 400 mg/kg [24]: 50%
MIC [12]: 2 to 125 µg/mL (≈ 8.16 to 510 µM)
Activity [25]: 2 to 125 µg/mL
Activity [26]: 2 to 125 µg/mL
Activity [27]: 2 to 125 µg/mL
Activity [28]: 2 to 125 µg/mL
Activity [29]: 2 to 125 µg/mL

COc1cc(CCN)c2c(c1OC)SSSSS2 [VARACIN]
IC50 [30]: 1.8 nM
IC50 [31]: 1.69 nM
IC50 [32]: 0.6 nM
zone of inhibition at 2 µg/disc [33]: 14 mm
IC90 [34]: 0.05 µg/mL (≈ 0.147 µM)

COc1c(O)cc(CCN)c2c1SSSSS2
MIC [1]: 0.1 to 0.6 µg/mL (≈ 0.307 to 1.84 µM)
MIC [35]: 0.1 to 0.6 µg/mL (≈ 0.307 to 1.84 µM)
MIC [36]: 20 µg/mL (≈ 61.4 µM)
MIC [37]: 0.1 to 0.6 µg/mL (≈ 0.307 to 1.84 µM)
MIC [38]: 0.1 to 0.6 µg/mL (≈ 0.307 to 1.84 µM)
MIC [39]: 40 µg/mL (≈ 123 µM)
IC50 [40]: 1 µg/mL (≈ 3.07 µM)
MIC [41]: 0.1 to 0.6 µg/mL (≈ 0.307 to 1.84 µM)
MIC [42]: 0.1 to 0.6 µg/mL (≈ 0.307 to 1.84 µM)
MIC [43]: 0.1 to 0.6 µg/mL (≈ 0.307 to 1.84 µM)
MIC [44]: 0.1 to 0.6 µg/mL (≈ 0.307 to 1.84 µM)

COc1nnc2nn(C)cnc1-2
MIC [45]: 5000 to 50000 µg/mL (≈ 30300 to 303000 µM)
MIC [46]: 5000 to 50000 µg/mL (≈ 30300 to 303000 µM)
MIC [47]: 5000 to 50000 µg/mL (≈ 30300 to 303000 µM)
inhibition in vivo at 0.2 mg/kg [48]: 40%

Reference: ChEMBL document CHEMBL4265876, “Natural Products with Heteroatom-Rich Ring Systems” (J Nat Prod, 2017)
